Source: patent US9474790B2, “Stable, protracted GLP-1/glucagon receptor co-agonists for medical use” (Novo Nordisk A/S, priority 2013, dated 2016)
pEC50: −log10 of the molar value. Numbered stars: 1 amine (or outer) side, 2 acyl side, 3 side chain; on linkers, the order of the positions; unused ones are H or OH. Square brackets hold non-standard residues; d marks the D form. Side chains are listed from the residue outwards. Peptide text beside a SMILES is read from it. * marks the point of attachment. C18 diacid = O=C(O)CCCCCCCCCCCCCCCCC(=O)*; γGlu = O=C(O)[C@H](CCC(=O)[*:2])N[*:1]; Ac4c = NC1(C(=O)O)CCC1; AEEA = NCCOCCOCC(=O)O; Aib = CC(C)(N)C(=O)O

target: T1, human glucagon receptor (Homo sapiens, UniProt P47871); experiment: Glucagon receptor potency, CRE luciferase reporter gene assay in BHK cells; format: cell-based; conditions: BHK cells expressing human glucagon receptor, read-out: EC50 GlucR
T1 construct: expressed in transfected cells; host or cells: BHK cells (parent BHK570, CRE luciferase clone BHK/KZ10-20-48), clone pLJ6'-4-25
T1 sequence (P47871 26-477): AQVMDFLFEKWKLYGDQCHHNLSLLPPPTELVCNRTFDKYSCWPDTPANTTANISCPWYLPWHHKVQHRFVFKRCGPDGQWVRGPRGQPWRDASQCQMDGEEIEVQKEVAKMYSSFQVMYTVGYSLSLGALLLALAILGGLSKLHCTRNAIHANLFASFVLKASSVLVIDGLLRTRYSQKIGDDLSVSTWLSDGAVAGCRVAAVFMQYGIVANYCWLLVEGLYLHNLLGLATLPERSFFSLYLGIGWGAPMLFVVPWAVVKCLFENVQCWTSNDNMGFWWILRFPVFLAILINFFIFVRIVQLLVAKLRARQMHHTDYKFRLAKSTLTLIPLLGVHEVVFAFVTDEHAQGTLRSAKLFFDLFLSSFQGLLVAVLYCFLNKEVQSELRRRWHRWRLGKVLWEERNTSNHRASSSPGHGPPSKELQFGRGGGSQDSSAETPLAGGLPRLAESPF
Procedure, shortened: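 Stably transfected BHK cells (BHK570 background) expressing human glucagon receptor with CRE-firefly luciferase reporter, 5×10EE3 cells/well in DMEM/HEPES with 2% ovalbumin and 0.2% Pluronic F-68. Compounds 1×10EE-13 to 1×10EE-6 M final, 3 h at 37 °C; luminescence read, EC50 from four-parameter fit, in pM.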

pEC50	SMILES
11.00	CC(C)C[C@H](NC(=O)[C@H](Cc1ccc(O)cc1)NC(=O)[C@H](CCCNC(=N)N)NC(=O)[C@H](CO)NC(=O)[C@H](CC(C)C)NC(=O)[C@H](CC(=O)O)NC(=O)[C@H](CO)NC(=O)[C@@H](NC(=O)[C@H](Cc1ccccc1)NC(=O)[C@@H](NC(=O)CNC(=O)[C@H](CCC(N)=O)NC(=O)C(C)(C)NC(=O)[C@@H](N)Cc1c[nH]cn1)[C@@H](C)O)[C@@H](C)O)C(=O)N[C@@H](CC(=O)O)C(=O)N[C@@H](C)C(=O)N[C@@H](CCCNC(=N)N)C(=O)N[C@@H](CCCNC(=N)N)C(=O)N[C@@H](C)C(=O)N[C@@H](CCCNC(=N)N)C(=O)N[C@@H](CC(=O)O)C(=O)N[C@@H](Cc1ccccc1)C(=O)N[C@H](C(=O)N[C@@H](CCC(N)=O)C(=O)N[C@@H](Cc1c[nH]c2ccccc12)C(=O)N[C@@H](CC(C)C)C(=O)N[C@@H](CC(C)C)C(=O)N[C@@H](CCCCNC(=O)CC[C@H](NC(=O)CC[C@H](NC(=O)CC[C@H](NC(=O)CCCCCCCCCCCCCCCCC(=O)O)C(=O)O)C(=O)O)C(=O)O)C(=O)N[C@H](C(N)=O)[C@@H](C)O)C(C)C [Example 62, N^ε28-[(4S)-4-carboxy-4-[[(4S)-4-carboxy-4-[[(4S)-4-carboxy-4-(17-carboxyheptadecanoylamino)butanoyl]amino]butanoyl]amino]butanoyl]-[Aib2,Leu10,Arg12,Ala16,Arg20,Leu27,Lys28]-Glucagon amide] (H-H[Aib]QGTFTSDLSRYLDARRARDFVQWLLK([γGlu-γGlu-γGlu-C18 diacid])T-NH2; N-terminus assumed)
10.62	CC(C)C[C@H](NC(=O)[C@H](Cc1ccc(O)cc1)NC(=O)[C@H](CCCCN)NC(=O)[C@H](CO)NC(=O)[C@H](CC(C)C)NC(=O)[C@H](CC(=O)O)NC(=O)[C@H](CO)NC(=O)[C@@H](NC(=O)[C@H](Cc1ccccc1)NC(=O)[C@@H](NC(=O)CNC(=O)[C@H](CCC(N)=O)NC(=O)C1(NC(=O)[C@@H](N)Cc2c[nH]cn2)CCC1)[C@@H](C)O)[C@@H](C)O)C(=O)N[C@@H](CCC(=O)O)C(=O)N[C@@H](CO)C(=O)N[C@@H](CCCNC(=N)N)C(=O)N[C@@H](CCCNC(=N)N)C(=O)N[C@@H](C)C(=O)N[C@@H](CCC(N)=O)C(=O)N[C@@H](CC(=O)O)C(=O)N[C@@H](Cc1ccccc1)C(=O)N[C@H](C(=O)N[C@@H](CCC(N)=O)C(=O)N[C@@H](Cc1c[nH]c2ccccc12)C(=O)N[C@@H](CC(C)C)C(=O)N[C@@H](CC(C)C)C(=O)N[C@@H](CCCCNC(=O)COCCOCCNC(=O)COCCOCCNC(=O)CC[C@H](NC(=O)CC[C@H](NC(=O)CC[C@H](NC(=O)CCCCCCCCCCCCCCCCC(=O)O)C(=O)O)C(=O)O)C(=O)O)C(=O)N[C@H](C(N)=O)[C@@H](C)O)C(C)C [Example 63, N^ε28-[2-[2-[2-[[2-[2-[2-[[(4S)-4-carboxy-4-[[(4S)-4-carboxy-4-[[(4S)-4-carboxy-4-(17-carboxyheptadecanoylamino)butanoyl]amino]butanoyl]amino]butanoyl]amino]ethoxy]ethoxy]acetyl]amino]ethoxy]ethoxy]acetyl]-[Acb2,Leu10,Glu15,Leu27,Lys28]-Glucagon amide] (H-H[Ac4c]QGTFTSDLSKYLESRRAQDFVQWLLK([AEEA-AEEA-γGlu-γGlu-γGlu-C18 diacid])T-NH2; N-terminus assumed)
11.00	CC(C)C[C@H](NC(=O)[C@H](Cc1ccc(O)cc1)NC(=O)[C@H](CCCCN)NC(=O)[C@H](CO)NC(=O)[C@H](CC(C)C)NC(=O)[C@H](CC(=O)O)NC(=O)[C@H](CO)NC(=O)[C@@H](NC(=O)[C@H](Cc1ccccc1)NC(=O)[C@@H](NC(=O)CNC(=O)[C@H](CCC(N)=O)NC(=O)C(C)(C)NC(=O)[C@@H](N)Cc1c[nH]cn1)[C@@H](C)O)[C@@H](C)O)C(=O)N[C@@H](CCC(=O)O)C(=O)N[C@@H](CO)C(=O)N[C@@H](CCCNC(=N)N)C(=O)N[C@@H](CCCNC(=N)N)C(=O)N[C@@H](C)C(=O)N[C@@H](CCCNC(=N)N)C(=O)N[C@@H](CCC(=O)O)C(=O)N[C@@H](Cc1ccccc1)C(=O)N[C@H](C(=O)N[C@@H](CCC(N)=O)C(=O)N[C@@H](Cc1c[nH]c2ccccc12)C(=O)N[C@@H](CC(C)C)C(=O)N[C@@H](CC(C)C)C(=O)N[C@@H](CCCCNC(=O)CC[C@H](NC(=O)CC[C@H](NC(=O)[C@H](CO)NC(=O)[C@H](CCC(=O)O)NC(=O)[C@H](CO)NC(=O)CC[C@H](NC(=O)CC[C@H](NC(=O)CCCCCCCCCCCCCCCCC(=O)O)C(=O)O)C(=O)O)C(=O)O)C(=O)O)C(=O)N[C@H](C(N)=O)[C@@H](C)O)C(C)C [Example 67, N^ε28-[(4S)-4-carboxy-4-[[(4S)-4-carboxy-4-[[(2S)-2-[[(2S)-4-carboxy-2-[[(2S)-2-[[(4S)-4-carboxy-4-[[(4S)-4-carboxy-4-(17-carboxyheptadecanoylamino)butanoyl]amino]butanoyl]amino]-3-hydroxypropanoyl]amino]butanoyl]amino]-3-hydroxypropanoyl]amino]butanoyl]amino]butanoyl]-[Aib2,Leu10,Glu15,Arg20,Glu21,Leu27,Lys28]-Glucagon amide] (H-H[Aib]QGTFTSDLSKYLESRRAREFVQWLLK([γGlu-γGlu-Ser-Glu-Ser-γGlu-γGlu-C18 diacid])T-NH2; N-terminus assumed)

The next lines start with the compound.

SMILES	pEC50
CC(C)C[C@H](NC(=O)[C@H](Cc1ccc(O)cc1)NC(=O)[C@H](CCCNC(=N)N)NC(=O)[C@H](CO)NC(=O)[C@H](CC(C)C)NC(=O)[C@H](CC(=O)O)NC(=O)[C@H](CO)NC(=O)[C@@H](NC(=O)[C@H](Cc1ccccc1)NC(=O)[C@@H](NC(=O)CNC(=O)[C@H](CCC(N)=O)NC(=O)C1(NC(=O)[C@@H](N)Cc2c[nH]cn2)CCC1)[C@@H](C)O)[C@@H](C)O)C(=O)N[C@@H](CCC(=O)O)C(=O)N[C@@H](CO)C(=O)N[C@@H](CCCNC(=N)N)C(=O)N[C@@H](CCCNC(=N)N)C(=O)N[C@@H](C)C(=O)N[C@@H](CCCNC(=N)N)C(=O)N[C@@H](CCC(=O)O)C(=O)N[C@@H](Cc1ccccc1)C(=O)N[C@H](C(=O)N[C@@H](CCC(N)=O)C(=O)N[C@@H](Cc1c[nH]c2ccccc12)C(=O)N[C@@H](CC(C)C)C(=O)N[C@@H](CC(C)C)C(=O)N[C@@H](CCCCNC(=O)CC[C@H](NC(=O)CC[C@H](NC(=O)COCCOCCNC(=O)COCCOCCNC(=O)CC[C@H](NC(=O)CC[C@H](NC(=O)CCCCCCCCCCCCCCCCC(=O)O)C(=O)O)C(=O)O)C(=O)O)C(=O)O)C(=O)N[C@H](C(N)=O)[C@@H](C)O)C(C)C [Example 59, N^ε28-[(4S)-4-carboxy-4-[[(4S)-4-carboxy-4-[[2-[2-[2-[[2-[2-[2-[[(4S)-4-carboxy-4-[[(4S)-4-carboxy-4-(17-carboxyheptadecanoylamino)butanoyl]amino]butanoyl]amino]ethoxy]ethoxy]acetyl]amino]ethoxy]ethoxy]acetyl]amino]butanoyl]amino]butanoyl]-[Acb2,Leu10,Arg12,Glu15,Arg20,Glu21,Leu27,Lys28]-Glucagon amide] (H-H[Ac4c]QGTFTSDLSRYLESRRAREFVQWLLK([γGlu-γGlu-AEEA-AEEA-γGlu-γGlu-C18 diacid])T-NH2; N-terminus assumed)	10.77
CC(C)C[C@H](NC(=O)[C@H](Cc1ccc(O)cc1)NC(=O)[C@H](CCCCN)NC(=O)[C@H](CO)NC(=O)[C@H](CC(C)C)NC(=O)[C@H](CC(=O)O)NC(=O)[C@H](CO)NC(=O)[C@@H](NC(=O)[C@H](Cc1ccccc1)NC(=O)[C@@H](NC(=O)CNC(=O)[C@H](CCC(N)=O)NC(=O)C(C)(C)NC(=O)[C@@H](N)Cc1c[nH]cn1)[C@@H](C)O)[C@@H](C)O)C(=O)N[C@@H](CCC(=O)O)C(=O)N[C@@H](CO)C(=O)N[C@@H](CCCNC(=N)N)C(=O)N[C@@H](CCCNC(=N)N)C(=O)N[C@@H](C)C(=O)N[C@@H](CCCNC(=N)N)C(=O)N[C@@H](CCC(=O)O)C(=O)N[C@@H](Cc1ccccc1)C(=O)N[C@H](C(=O)N[C@@H](CCC(N)=O)C(=O)N[C@@H](Cc1c[nH]c2ccccc12)C(=O)N[C@@H](CC(C)C)C(=O)N[C@@H](CC(C)C)C(=O)N[C@@H](CCCCNC(=O)CC[C@H](NC(=O)CC[C@H](NC(=O)COCCOCCNC(=O)COCCOCCNC(=O)CC[C@H](NC(=O)CC[C@H](NC(=O)CCCCCCCCCCCCCCCCC(=O)O)C(=O)O)C(=O)O)C(=O)O)C(=O)O)C(=O)N[C@H](C(N)=O)[C@@H](C)O)C(C)C [Example 60, N^ε28-[(4S)-4-carboxy-4-[[(4S)-4-carboxy-4-[[2-[2-[2-[[2-[2-[2-[[(4S)-4-carboxy-4-[[(4S)-4-carboxy-4-(17-carboxyheptadecanoylamino)butanoyl]amino]butanoyl]amino]ethoxy]ethoxy]acetyl]amino]ethoxy]ethoxy]acetyl]amino]butanoyl]amino]butanoyl]-[Aib2,Leu10,Glu15,Arg20,Glu21,Leu27,Lys28]-Glucagon amide] (H-H[Aib]QGTFTSDLSKYLESRRAREFVQWLLK([γGlu-γGlu-AEEA-AEEA-γGlu-γGlu-C18 diacid])T-NH2; N-terminus assumed)	10.27
